Experimental findings from patent US9849435B2, “Maleic anhydride polymer-stabilized microcapsules” (Firmenich SA, priority 2013, dated 2017) are described below.

A short description of data set [1]: Oil properties: volatility. The data set is classed as physicochemical. The settings on record: oil ingredient.
Data set [2] is described as follows: Oil properties: Log P. It counts as physicochemical. The following applies: oil ingredient.

`C/C=C/C(=O)C1C(C)C=CCC1(C)C` (centres unmarked) [Delta-Damascone] gave a Volatility in data set [1] of 371 µg/L. Besides, in data set [2], the “Log P” value was found to be 4.16.

Take `C=CC(C)CCCC(C)(C)O` (centres unmarked) [Dihydromycenol]: the Volatility in data set [1] was determined as 1391 µg/L. Besides, the “Log P” value in data set [2] is given as 3.47.

`C=C(C)[C@H]1CC=C(C)CC1` [Limonene] displayed a Volatility in data set [1] of 14183 µg/L. The “Log P” value in data set [2] is 4.38.

For `OCCc1ccccc1` [Phenylethyl Alcohol], the logP in data set [2] is 1.52.

For `CC(=O)/C=C/C1=C(C)CCCC1(C)C` [β-Ionone], the lipophilicity (Log P) in data set [2] came out at 3.012.

As usually defined, the Log P is the decadic logarithm of the partition coefficient of the neutral form, usually between octanol and water. Read a high Log P as higher lipophilicity. What is called logP is a log measure of how a compound divides between an organic and an aqueous phase. A high value points to higher lipophilicity.
